Here are results for two substances from patent US20130022620A1, “ASSAYS AND METHODS PERTAINING TO PRE-AMYLOID INTERMEDIATES” (priority 2011, published 2013).

Positions of bridges follow the written chain, without caps; N, C: chain ends. No end group written: not given here.

In series [1] the target is T1, sRAGE (Homo sapiens, UniProt Q15109).
T1 construct: the soluble extracellular domain of RAGE (sRAGE); made in house; host or cells: Sf9 insect cells (baculovirus)
Briefly: Difference CD of IAPP peptides with sRAGE. The settings on record: end point of the reactions. The format is binding. Here is the method:
CD measurements of IAPP, sRAGE and IAPP/sRAGE reactions were taken at various incubation times. Far-UV CD experiments monitor the development of secondary structure of h-IAPP species and give insight into the conformational requirement for IAPP/RAGE-binding. All CD experiments were performed on an Applied Photophysics circular dichroism spectrophotometer by directly transferring 300 μL of peptide solution from kinetic assays into a 0.1 cm quartz cuvette a few minutes prior to data collection. The CD spectra for sRAGE and tris HCl buffer was subtracted from all RAGE/IAPP mixtures. The final far-UV CD data was collected over the range of 190 to 260 nm. Final solution conditions contained 16 mM tris HCl (pH 7.4).

The nature of series [2]: Thioflavin-T kinetics and TEM of amyloid formation by IAPP peptides. It counts as physicochemical. Here is the method:
Thioflavin-T fluorescence was used to monitor the time course of h-IAPP amyloid formation in the presence and absence of sRAGE. To identify which form(s) of h-IAPP interact with RAGE, sRAGE was added to h-IAPP at various time points during the h-IAPP amyloid formation reaction. Aliquots of the reaction mixture were analyzed by adding 100 uL aliquots of the amyloid formation reaction to 96-well plates containing 8 uL of 60 uM thioflavin-T solution at various incubation times after initiation of the amyloid formation reaction. Fluorescence was measured using a Beckman Coulter DTX880 fluorescent plate reader (excitation: 445 nm and emission: 485 nm). Final solution conditions contained 16 mM tris HCl and […] thioflavin-T (pH 7.4). […] All values represent means±SEM (n=3).
Transient kinetic species of h-IAPP were characterized by TEM. TEM images confirm the presence or absence of amyloid which were indicated by thioflavin-T fluorescence. Aliquots (4 μl) were removed from the reaction mixtures monitored by thioflavin-T assays, placed on a carbon-coated 200-mesh copper grid and negatively stained with saturated uranyl acetate. The samples were imaged with a Philips CM12 transmission electron microscope at the New York University electron microscopy core facility. Final solution conditions contained 16 mM tris HCl (pH 7.4).

The target in series [3] is T1, sRAGE. The series is described as follows: Tryptophan fluorescence quenching assay of sRAGE binding. The settings on record: sRAGE added at different time points of the reaction, 1:1 molar ratio. An excerpt:
The quenching of tryptophan fluorescence indicates binding. Fluorescence measurements were made at right angle in a […] dual path length quartz cuvette, using a Photon Technology International fluorescent spectrometer (280 nm excitation and 350 nm emission). Background fluorescence from buffer and IAPP peptides were negligible. The fluorescence quantum yield reported for each time point is an average of 20 reads over 20 seconds (2.5 nm bandwidth and 1 second integration time). Final solution conditions contained 16 mM tris HCl (pH 7.4).

For the next series, the target named is T2, h-IAPP (Homo sapiens, UniProt P10997).
T2 sequence (P10997 34-70 limits assumed): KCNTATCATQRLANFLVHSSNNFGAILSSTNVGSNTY
The settings on record: I26P point mutant; Fanling et al. 2010; cited from earlier work.

In the next series the test system is rat INS-1 β-cells. The series is described as follows: AlamarBlue cell viability assay of β-cells. It counts as cell-based. The protocol: Transformed rat insulinoma-1 (INS-1) β-cells (which express RAGE) are a pancreatic beta cell line commonly used for studies of h-IAPP induced toxicity. INS-1 cells were grown in RPMI 1640 supplemented with 10% fetal bovine serum (FBS), 11 mM glucose, 10 mM Hepes, 2 mM L-glutamine, 1 mM sodium pyruvate, 50 μM β-mercaptoethanol, 100 U/ml penicillin, and […] streptomycin. Cells were maintained at 37° C./5% CO2.
Cyto-toxicity was measured by AlamarBlue assay. INS-1 β-cells were seeded at a density of 30,000 cells per well in 96-well plates and cultured for 24 hours prior to stimulation with IAPP. Human and rat IAPP were dissolved and incubated in 16 mM tris HCl (pH 7.4, 25° C.) prior to cell stimulation. AlamarBlue was diluted ten-fold in culture media and cells were incubated for 5 hours at 37° C. Fluorescence (excitation 530; emission 590 nm) was measured on a Beckman Coulter DTX880 fluorescent plate reader. Values calculated were relative to those of control cells treated with buffer only. All values represent means±SEM (n=3).
Changes in cell morphology were examined by light microscopy to provide a second method of evaluating cell viability. Transformed rat INS-1 beta cells were photographed immediately prior to assessment of toxicity by Alamar blue cell viability assays. Images were taken using an Olympus BX-61 light microscope.
(In general: Resazurin is reduced to fluorescent resorufin, in cell work by metabolically active cells.)

The conditions of series [4]: Ser-20 substitution; Cao et al. 2011; cited from earlier work.

T1 sequence (Q15109 23-342): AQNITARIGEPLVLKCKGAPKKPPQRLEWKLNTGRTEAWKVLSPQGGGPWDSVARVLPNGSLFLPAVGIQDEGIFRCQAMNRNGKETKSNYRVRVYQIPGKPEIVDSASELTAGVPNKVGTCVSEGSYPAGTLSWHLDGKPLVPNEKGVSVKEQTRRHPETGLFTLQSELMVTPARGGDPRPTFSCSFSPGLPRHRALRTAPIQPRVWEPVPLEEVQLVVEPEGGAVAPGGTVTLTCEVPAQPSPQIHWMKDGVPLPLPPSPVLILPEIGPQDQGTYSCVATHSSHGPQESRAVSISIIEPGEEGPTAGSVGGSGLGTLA

Regarding “I26P-IAPP: I26P point mutant of h-IAPP, inhibitor of h-IAPP amyloid formation (KCNTATCATQRLANFLVHSSNNFGAPLSSTNVGSNTY-NH2; disulfide 2-7; N-terminus assumed; SMILES CC(C)C[C@H](NC(=O)[C@H](CCCNC(=N)N)NC(=O)[C@H](CCC(N)=O)NC(=O)[C@@H](NC(=O)[C@H](C)NC(=O)[C@@H]1CSSC[C@H](NC(=O)[C@@H](N)CCCCN)C(=O)N[C@@H](CC(N)=O)C(=O)N[C@@H]([C@@H](C)O)C(=O)N[C@@H](C)C(=O)N[C@@H]([C@@H](C)O)C(=O)N1)[C@@H](C)O)C(=O)N[C@@H](C)C(=O)N[C@@H](CC(N)=O)C(=O)N[C@@H](Cc1ccccc1)C(=O)N[C@@H](CC(C)C)C(=O)N[C@H](C(=O)N[C@@H](Cc1c[nH]cn1)C(=O)N[C@@H](CO)C(=O)N[C@@H](CO)C(=O)N[C@@H](CC(N)=O)C(=O)N[C@@H](CC(N)=O)C(=O)N[C@@H](Cc1ccccc1)C(=O)NCC(=O)N[C@@H](C)C(=O)N1CCC[C@H]1C(=O)N[C@@H](CC(C)C)C(=O)N[C@@H](CO)C(=O)N[C@@H](CO)C(=O)N[C@H](C(=O)N[C@@H](CC(N)=O)C(=O)N[C@H](C(=O)NCC(=O)N[C@@H](CO)C(=O)N[C@@H](CC(N)=O)C(=O)N[C@H](C(=O)N[C@@H](Cc1ccc(O)cc1)C(N)=O)[C@@H](C)O)C(C)C)[C@@H](C)O)C(C)C)”, in the series with sRAGE [1], the “interaction with sRAGE (difference CD)” value is listed as “does not interact”. Besides, the “amyloid formation (thioflavin-T)” value in series [2] (peptide by itself) is “does not form amyloid”. Further, the “binding to sRAGE (tryptophan fluorescence quenching)” value in the series with sRAGE [3] was “No binding was detected”. Further, the “inhibition of h-IAPP amyloid formation” value with h-IAPP is reported as “potent inhibitor of h-IAPP amyloid formation”. In addition, the toxicity by itself entry with rat INS-1 β-cells (40 uM, pH 7.4 25° C.) is on record as “is not toxic by itself”. For the same substance, in the series on rat INS-1 β-cells (1:1 mixture with 40 uM h-IAPP), the “effect of the amyloid inhibitor on duration of h-IAPP toxicity” value was “increases the duration of toxicity”.

For “S20G-IAPP: S20G mutation of human IAPP, SEQ ID NO: 3 (KCNTATCATQRLANFLVHSGNNFGAILSSTNVGSNTY-NH2; disulfide 2-7; N-terminus assumed; SMILES CC[C@H](C)[C@H](NC(=O)[C@H](C)NC(=O)CNC(=O)[C@H](Cc1ccccc1)NC(=O)[C@H](CC(N)=O)NC(=O)[C@H](CC(N)=O)NC(=O)CNC(=O)[C@H](CO)NC(=O)[C@H](Cc1c[nH]cn1)NC(=O)[C@@H](NC(=O)[C@H](CC(C)C)NC(=O)[C@H](Cc1ccccc1)NC(=O)[C@H](CC(N)=O)NC(=O)[C@H](C)NC(=O)[C@H](CC(C)C)NC(=O)[C@H](CCCNC(=N)N)NC(=O)[C@H](CCC(N)=O)NC(=O)[C@@H](NC(=O)[C@H](C)NC(=O)[C@@H]1CSSC[C@H](NC(=O)[C@@H](N)CCCCN)C(=O)N[C@@H](CC(N)=O)C(=O)N[C@@H]([C@@H](C)O)C(=O)N[C@@H](C)C(=O)N[C@@H]([C@@H](C)O)C(=O)N1)[C@@H](C)O)C(C)C)C(=O)N[C@@H](CC(C)C)C(=O)N[C@@H](CO)C(=O)N[C@@H](CO)C(=O)N[C@H](C(=O)N[C@@H](CC(N)=O)C(=O)N[C@H](C(=O)NCC(=O)N[C@@H](CO)C(=O)N[C@@H](CC(N)=O)C(=O)N[C@H](C(=O)N[C@@H](Cc1ccc(O)cc1)C(N)=O)[C@@H](C)O)C(C)C)[C@@H](C)O; listed as Homo sapiens)”, the “rate of aggregation compared to wild type” value in series [2] (20 uM, pH 7.4 25° C.) is recorded as “faster rate of aggregation”. In addition, in series [4], the “lag phase and rate of amyloid formation” value is “abolishes the lag phase and increases the rate of amyloid formation”. Moreover, the “onset and duration of toxicity compared to wild type” value with rat INS-1 β-cells (side-by-side with kinetics, 20 uM for the Ser-20 mutants) is “faster onset and shorter duration of toxicity compared to wild type”.
